Where two headings read alike, the source gives them in different places.
Target: T1, Lsp from E. coli (Escherichia coli, UniProt P00804)
T1 construct: The full-length Lsp clone from E. coli (residues 1-164); His6 with enterokinase cleavage site (pET19b) (N); made in house; host or cells: E. coli Lemo21 (DE3), pET19b vector
Assay: Lsp FRET activity assay, IC50 determination
Assay type: biochemical
Procedure: […] […] 50 μM Lsp FRET substrate was subsequently added and the rate of substrate hydrolysis was measured by increase in fluorescence (excitation 355 nm, emission 495 nm) in 96-well plates on a PerkinElmer EnVision plate reader or Tecan Safire 2 microplate reader. Michaelis-Menten constants and […] were determined using GraphPad Prism software (GraphPad, Inc.).

[1] = FRET-based assay, [Lsp] = 400 nM, mean (± SD), read-out: IC50
[2] = Table 2, variation of R3, read-out: IC50
[3] = FRET-based assay, [Lsp] = 100 nM, mean (± SD), read-out: IC50
[4] = Table 5, [Lsp] = 20 nM, read-out: IC50

T1 sequence (P00804 whole entry, the tested form may be a part): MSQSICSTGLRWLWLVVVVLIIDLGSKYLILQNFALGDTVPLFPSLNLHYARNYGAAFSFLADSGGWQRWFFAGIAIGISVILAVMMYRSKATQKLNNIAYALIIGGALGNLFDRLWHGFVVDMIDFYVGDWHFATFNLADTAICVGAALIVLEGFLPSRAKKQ

Structure (SMILES): CCC(CC)c1nnc(NC(=O)c2cc(OC)c(OC)cc2[N+](=O)[O-])s1 [1a, 4,5-dimethoxy-2-nitro-N-(5-(pentan-3-yl)-1,3,4-thiadiazol-2-yl)benzamide]
- IC50 [1]: 4.2 µM
- IC50 [2]: 4.2 ± 1 µM
- manner of Lsp inhibition (biochemical analysis): non-competitive

Structure (SMILES): CCC(CC)c1nnc(NC(=O)c2ccc(OC)c(OC)c2)s1 [1b]
- potency against Lsp, in words (SAR): ablated the potency
- IC50 [1]: 110 µM

Structure (SMILES): CCCCc1nnc(NC(=O)c2cc(OC)c(OC)cc2[N+](=O)[O-])s1 [1d]
- IC50 [1]: 29 µM
- IC50 [2]: 29 ± 0.6 µM

Structure (SMILES): CCOc1cc([N+](=O)[O-])c(C(=O)Nc2nnc(C(CC)CC)s2)cc1OC [1f, 4-ethoxy-5-methoxy-2-nitro-N-(5-(pentan-3-yl)-1,3,4-thiadiazol-2-yl)benzamide]
- IC50 [1]: 1.2 µM

Structure (SMILES): CCCCOc1cc([N+](=O)[O-])c(C(=O)Nc2nnc(C(CC)CC)s2)cc1OC [1g, 4-butoxy-5-methoxy-2-nitro-N-(5-(pentan-3-yl)-1,3,4-thiadiazol-2-yl)benzamide]
- IC50 [3]: 0.54 µM

Structure (SMILES): CCCCCCOc1cc([N+](=O)[O-])c(C(=O)Nc2nnc(C(CC)CC)s2)cc1OC [1h, 4-(hexyloxy)-5-methoxy-2-nitro-N-(5-(pentan-3-yl)-1,3,4-thiadiazol-2-y)benzamide]
- IC50 [3]: 0.11 µM

Structure (SMILES): CCC(CC)c1nnc(NC(=O)c2cc(OC)c(OC(C)C)cc2[N+](=O)[O-])s1 [1i, 4-isopropoxy-5-methoxy-2-nitro-N-(5-(pentan-3-yl)-1,3,4-thiadiazol-2-yl)benzamide]
- effect on cleaved substrate fluorescence: no effect
- IC50 [3]: 0.21 µM
- Hill constant ([S]=50 μM, [Lsp]=100 nM): approximately 1

Structure (SMILES): CCOC(=O)Cc1nnc(NC(=O)c2cc(OC)c(OC)cc2[N+](=O)[O-])s1 [Sk052-27-2]
- IC50 [2]: 78 µM

Structure (SMILES): COc1cc(C(=O)Nc2nnc(C3CCCCC3)s2)c([N+](=O)[O-])cc1OC [Sk052-56]
- IC50 [2]: > 400 µM

Structure (SMILES): CCCC(CCC)c1nnc(NC(=O)c2cc(OC)c(OC)cc2[N+](=O)[O-])s1 [Sk052-88-1]
- IC50 [2]: 1.1 µM

Structure (SMILES): COc1cc(C(=O)Nc2nnc(CCc3ccccc3)s2)c([N+](=O)[O-])cc1OC [Sk052-88-2]
- IC50 [2]: 20 µM

Structure (SMILES): CCC(CC)c1nnc(NC(=O)c2cc(OC)c(OC3CCCC3)cc2[N+](=O)[O-])s1 [Sk052-145-2]
- IC50 [4]: 0.073 µM

Structure (SMILES): CCC(CC)c1nnc(NC(=O)c2cc(OC)ccc2[N+](=O)[O-])s1 [Sk052-146-1]
- IC50 (Table 4, read-out: IC50): 3.6 µM

Structure (SMILES): CCC(CC)c1nnc(NC(=O)c2ccc(OC)cc2[N+](=O)[O-])s1 [Sk052-146-2]
- IC50 (Table 4, read-out: IC50): 2.2 µM

Structure (SMILES): COc1cc(C(=O)Nc2nnc(C3CC3)s2)c([N+](=O)[O-])cc1OC [Sk052-147-1]
- IC50 [2]: 208 µM

Structure (SMILES): CCCCCc1nnc(NC(=O)c2cc(OC)c(OC)cc2[N+](=O)[O-])s1 [Sk052-147-2]
- IC50 [2]: 26 µM

Structure (SMILES): COC(=O)CCc1nnc(NC(=O)c2cc(OC)c(OC)cc2[N+](=O)[O-])s1 [Sk052-147-3]
- IC50 [2]: > 200 µM

Structure (SMILES): CCC(CC)c1nnc(NC(=O)c2cc(OC)c(OCc3ccccc3)cc2[N+](=O)[O-])s1 [Sk054-82-3]
- IC50 [4]: 2.9 µM

Structure (SMILES): CCC(CC)c1nnc(NC(=O)c2ccccc2[N+](=O)[O-])s1 [Sk054-91-1]
- IC50 (Table 4, read-out: IC50): 11 ± 3 µM

Structure (SMILES): CCC(CC)c1nnc(NC(=O)c2ccc(OC)cn2)s1 [Sk054-91-2]
- IC50 (Table 4, read-out: IC50): > 400 µM

Structure (SMILES): CCC(CC)c1nnc(NC(=O)c2ccc(F)cc2[N+](=O)[O-])s1 [Sk054-91-3]
- IC50 (Table 4, read-out: IC50): 7.2 µM

Structure (SMILES): CCC(CC)c1nnc(NC(=O)c2ccc(NC(C)=O)cc2[N+](=O)[O-])s1 [Sk054-112-2]
- IC50 (Table 4, read-out: IC50): 160 µM

Structure (SMILES): CCC(CC)c1nnc(NC(=O)c2ccc(OC3CCCC3)cc2[N+](=O)[O-])s1 [Sk054-116-1]
- IC50 [4]: 0.4 µM

Structure (SMILES): CCC(CC)c1nnc(NC(=O)c2cc(Cl)c(OC3CCCC3)cc2[N+](=O)[O-])s1 [Sk054-116-2]
- IC50 [4]: 0.11 ± 0.012 µM
- IC50 (Table 6, read-out: IC50): 0.11 ± 0.012 µM

Structure (SMILES): CCC(CC)c1nnc(NC(=O)c2cc(OS(=O)(=O)On3nnc4ncccc43)ccc2[N+](=O)[O-])s1 [Sk054-141-1]
- IC50 (Table 4, read-out: IC50): 120 µM

Structure (SMILES): CCCc1nnc(NC(=O)c2cc(OC)c(OC)cc2[N+](=O)[O-])s1 [Sk054-141-2]
- IC50 [2]: 26 µM

Structure (SMILES): CCC(CC)c1nnc(NC(=O)c2ccc(OC)cc2N)s1 [Sk054-142]
- IC50 (Table 4, read-out: IC50): 11 µM

Structure (SMILES): CCC(CC)c1nnc(NC(=O)c2cc(OS(=O)(=O)F)ccc2[N+](=O)[O-])s1 [Sk054-144]
- IC50: 65 µM
